In ChEMBL document CHEMBL3885881, “DrugMatrix”:

Species: Rattus norvegicus
Assay: DrugMatrix - Regimen: Daily Repeat
Assay type: toxicity, organism-based, Sprague-Dawley
Design: regimen Daily Repeat, gender Male, age 6-8 weeks
Settings: in vivo, po, route oral GAVAGE, […]; for ABSOLUTE BASOPHIL / ABSOLUTE EOSINOPHIL / ABSOLUTE LYMPHOCYTE / ABSOLUTE MONOCYTE / ABSOLUTE SEGMENTED NEUTROPHIL / BASOPHIL / EOSINOPHIL / ERYTHROCYTE COUNT / HEMATOCRIT / HEMOGLOBIN / LEUKOCYTE COUNT / LYMPHOCYTE / MEAN CORPUSCULAR HEMOGLOBIN / MEAN CORPUSCULAR HEMOGLOBIN CONCENTRATION / MEAN CORPUSCULAR VOLUME / MONOCYTE / NEUTROPHIL / NUCLEATED RED BLOOD CELLS / PLATELET COUNT: tissue Blood; for ALANINE AMINOTRANSFERASE / ALBUMIN / ALKALINE PHOSPHATASE / ASPARTATE AMINOTRANSFERASE / BLOOD UREA NITROGEN / CARBON DIOXIDE / CHLORIDE / CHOLESTEROL / CREATINE PHOSPHOKINASE / CREATININE / GLUCOSE / LACTATE DEHYDROGENASE / LIPASE / PHOSPHORUS / POTASSIUM / SODIUM / TOTAL BILIRUBIN / TOTAL PROTEIN / URIC ACID: tissue Plasma
[1] = 0 mg/kg, 72 h, dose level Control, time 3 day
[2] = 0 mg/kg, 120 h, dose level Control, time 5 day
[3] = 13 mg/kg, 72 h, dose level Low, time 3 day
[4] = 13 mg/kg, 120 h, dose level Low, time 5 day

CC1=C(/C=C/C(C)=C/C=C/C(C)=C\C(=O)O)C(C)(C)CCC1 [ISOTRETINOIN]
ABSOLUTE BASOPHIL [1]: 0 CELLS/uL | ABSOLUTE EOSINOPHIL [1]: 0 CELLS/uL | ABSOLUTE LYMPHOCYTE [1]: 8493 CELLS/uL | ABSOLUTE MONOCYTE [1]: 127 CELLS/uL | ABSOLUTE SEGMENTED NEUTROPHIL [1]: 896.67 CELLS/uL | BASOPHIL [1]: 0% | EOSINOPHIL [1]: 0% | ERYTHROCYTE COUNT [1]: 5.53 x10E6/uL | HEMATOCRIT [1]: 34.07% | HEMOGLOBIN [1]: 13.28 G/DL | LEUKOCYTE COUNT [1]: 9.52 x10E3/uL | LYMPHOCYTE [1]: 89.17% | MEAN CORPUSCULAR HEMOGLOBIN [1]: 24.07 pg | MEAN CORPUSCULAR HEMOGLOBIN CONCENTRATION [1]: 39.03 G/DL | MEAN CORPUSCULAR VOLUME [1]: 61.62 fL | MONOCYTE [1]: 1.33% | NEUTROPHIL [1]: 9.5% | NUCLEATED RED BLOOD CELLS [1]: 0.17 /100WBC | PLATELET COUNT [1]: 1054.17 x10E3/uL | ALANINE AMINOTRANSFERASE [1]: 77.67 u/L | ALBUMIN [1]: 4.08 G/DL | ALKALINE PHOSPHATASE [1]: 404.5 u/L | ASPARTATE AMINOTRANSFERASE [1]: 83.17 u/L | BLOOD UREA NITROGEN [1]: 14.33 mg/dL | CARBON DIOXIDE [1]: 33.17 mmol/L | CHLORIDE [1]: 101 MEQ/L | CHOLESTEROL [1]: 76.33 mg/dL | CREATINE PHOSPHOKINASE [1]: 184.5 u/L | CREATININE [1]: 0.13 mg/dL | GLUCOSE [1]: 163.67 mg/dL | LACTATE DEHYDROGENASE [1]: 130.33 u/L | LIPASE [1]: 11 u/L | PHOSPHORUS [1]: 9.27 mg/dL | POTASSIUM [1]: 6.26 MEQ/L | SODIUM [1]: 143.57 MEQ/L | TOTAL BILIRUBIN [1]: 0.18 mg/dL | TOTAL PROTEIN [1]: 5.82 G/DL | URIC ACID [1]: 1.38 mg/dL | ABSOLUTE BASOPHIL [2]: 0 CELLS/uL | ABSOLUTE EOSINOPHIL [2]: 0 CELLS/uL | ABSOLUTE LYMPHOCYTE [2]: 8546.17 CELLS/uL | ABSOLUTE MONOCYTE [2]: 49.5 CELLS/uL | ABSOLUTE SEGMENTED NEUTROPHIL [2]: 554.33 CELLS/uL | BASOPHIL [2]: 0% | EOSINOPHIL [2]: 0% | ERYTHROCYTE COUNT [2]: 5.36 x10E6/uL | HEMATOCRIT [2]: 33.38% | HEMOGLOBIN [2]: 13.2 G/DL | LEUKOCYTE COUNT [2]: 9.15 x10E3/uL | LYMPHOCYTE [2]: 93.17% | MEAN CORPUSCULAR HEMOGLOBIN [2]: 24.68 pg | MEAN CORPUSCULAR HEMOGLOBIN CONCENTRATION [2]: 39.58 G/DL | MEAN CORPUSCULAR VOLUME [2]: 62.38 fL | MONOCYTE [2]: 0.5% | NEUTROPHIL [2]: 6.33% | NUCLEATED RED BLOOD CELLS [2]: 0.17 /100WBC | PLATELET COUNT [2]: 1099.33 x10E3/uL | ALANINE AMINOTRANSFERASE [2]: 62.33 u/L | ALBUMIN [2]: 4.1 G/DL | ALKALINE PHOSPHATASE [2]: 419 u/L | ASPARTATE AMINOTRANSFERASE [2]: 83.17 u/L | BLOOD UREA NITROGEN [2]: 15.5 mg/dL | CARBON DIOXIDE [2]: 33.17 mmol/L | CHLORIDE [2]: 98 MEQ/L | CHOLESTEROL [2]: 58.33 mg/dL | CREATINE PHOSPHOKINASE [2]: 393.17 u/L | CREATININE [2]: 0.18 mg/dL | GLUCOSE [2]: 163 mg/dL | LACTATE DEHYDROGENASE [2]: 111.5 u/L | LIPASE [2]: 9.5 u/L | PHOSPHORUS [2]: 10.02 mg/dL | POTASSIUM [2]: 5.73 MEQ/L | SODIUM [2]: 143.65 MEQ/L | TOTAL BILIRUBIN [2]: 0.2 mg/dL | TOTAL PROTEIN [2]: 5.85 G/DL | URIC ACID [2]: 0.78 mg/dL | ABSOLUTE BASOPHIL [3]: 0 CELLS/uL | ABSOLUTE EOSINOPHIL [3]: 0 CELLS/uL | ABSOLUTE LYMPHOCYTE [3]: 5796.67 CELLS/uL | ABSOLUTE MONOCYTE [3]: 69.67 CELLS/uL | ABSOLUTE SEGMENTED NEUTROPHIL [3]: 533.67 CELLS/uL | BASOPHIL [3]: 0% | EOSINOPHIL [3]: 0% | ERYTHROCYTE COUNT [3]: 5.14 x10E6/uL | HEMATOCRIT [3]: 32.4% | HEMOGLOBIN [3]: 12.5 G/DL | LEUKOCYTE COUNT [3]: 6.4 x10E3/uL | LYMPHOCYTE [3]: 90.67% | MEAN CORPUSCULAR HEMOGLOBIN [3]: 24.33 pg | MEAN CORPUSCULAR HEMOGLOBIN CONCENTRATION [3]: 38.63 G/DL | MEAN CORPUSCULAR VOLUME [3]: 63.07 fL | MONOCYTE [3]: 1% | NEUTROPHIL [3]: 8.33% | NUCLEATED RED BLOOD CELLS [3]: 0 /100WBC | PLATELET COUNT [3]: 977.33 x10E3/uL | ALANINE AMINOTRANSFERASE [3]: 80.33 u/L | ALBUMIN [3]: 3.7 G/DL | ALKALINE PHOSPHATASE [3]: 427.67 u/L | ASPARTATE AMINOTRANSFERASE [3]: 93.33 u/L | BLOOD UREA NITROGEN [3]: 12 mg/dL | CARBON DIOXIDE [3]: 35 mmol/L | CHLORIDE [3]: 101.33 MEQ/L | CHOLESTEROL [3]: 70.33 mg/dL | CREATINE PHOSPHOKINASE [3]: 298 u/L | CREATININE [3]: 0.1 mg/dL | GLUCOSE [3]: 159.67 mg/dL | LACTATE DEHYDROGENASE [3]: 103.33 u/L | LIPASE [3]: 9.33 u/L | PHOSPHORUS [3]: 9.4 mg/dL | POTASSIUM [3]: 5.18 MEQ/L | SODIUM [3]: 146.37 MEQ/L | TOTAL BILIRUBIN [3]: 0.23 mg/dL | TOTAL PROTEIN [3]: 5.77 G/DL | URIC ACID [3]: 0.43 mg/dL | ABSOLUTE BASOPHIL [4]: 0 CELLS/uL | ABSOLUTE EOSINOPHIL [4]: 25 CELLS/uL | ABSOLUTE LYMPHOCYTE [4]: 7680.33 CELLS/uL | ABSOLUTE MONOCYTE [4]: 0 CELLS/uL | ABSOLUTE SEGMENTED NEUTROPHIL [4]: 428 CELLS/uL | BASOPHIL [4]: 0% | EOSINOPHIL [4]: 0.33% | ERYTHROCYTE COUNT [4]: 5.2 x10E6/uL | HEMATOCRIT [4]: 33.33% | HEMOGLOBIN [4]: 13.23 G/DL | LEUKOCYTE COUNT [4]: 8.13 x10E3/uL | LYMPHOCYTE [4]: 94.33% | MEAN CORPUSCULAR HEMOGLOBIN [4]: 25.47 pg | MEAN CORPUSCULAR HEMOGLOBIN CONCENTRATION [4]: 39.7 G/DL | MEAN CORPUSCULAR VOLUME [4]: 64.1 fL | MONOCYTE [4]: 0% | NEUTROPHIL [4]: 5.33% | NUCLEATED RED BLOOD CELLS [4]: 0 /100WBC | PLATELET COUNT [4]: 1135 x10E3/uL | ALANINE AMINOTRANSFERASE [4]: 75.67 u/L | ALBUMIN [4]: 3.67 G/DL | ALKALINE PHOSPHATASE [4]: 483 u/L | ASPARTATE AMINOTRANSFERASE [4]: 105.33 u/L | BLOOD UREA NITROGEN [4]: 12.33 mg/dL | CARBON DIOXIDE [4]: 32 mmol/L | CHLORIDE [4]: 98.67 MEQ/L | CHOLESTEROL [4]: 57 mg/dL | CREATINE PHOSPHOKINASE [4]: 433.67 u/L | CREATININE [4]: 0.15 mg/dL | GLUCOSE [4]: 156.67 mg/dL | LACTATE DEHYDROGENASE [4]: 119.33 u/L | LIPASE [4]: 9 u/L | PHOSPHORUS [4]: 10.47 mg/dL | POTASSIUM [4]: 5.72 MEQ/L | SODIUM [4]: 143.43 MEQ/L | TOTAL BILIRUBIN [4]: 0.3 mg/dL | TOTAL PROTEIN [4]: 5.7 G/DL | URIC ACID [4]: 0.67 mg/dL
